According to patent publication EP0311107A2, “Anti-HIV active 3'-fluoro-purine-2',3'-dideoxyribosides” (priority 1987, dated 1989):
Like-named read-outs stand apart in the source and are kept apart here. Marks after values point to notes of the source that are not given here.

Experiments:
[1] = target: T1, beef intestine adenosine deaminase (ADA) (Bos taurus, UniProt P56658); details: data taken from Balzarini, J. et al (1987c); cited from earlier work
T1 construct: Kinetic properties of beef intestine adenosine deaminase for 2,6-diaminopurine 2′,3′-dideoxynucleoside analogues; purchased Boehringer Mannheim, Mannheim, West Germany; host or cells: beef intestine (tissue-derived enzyme)
T1 sequence (P56658 1-363): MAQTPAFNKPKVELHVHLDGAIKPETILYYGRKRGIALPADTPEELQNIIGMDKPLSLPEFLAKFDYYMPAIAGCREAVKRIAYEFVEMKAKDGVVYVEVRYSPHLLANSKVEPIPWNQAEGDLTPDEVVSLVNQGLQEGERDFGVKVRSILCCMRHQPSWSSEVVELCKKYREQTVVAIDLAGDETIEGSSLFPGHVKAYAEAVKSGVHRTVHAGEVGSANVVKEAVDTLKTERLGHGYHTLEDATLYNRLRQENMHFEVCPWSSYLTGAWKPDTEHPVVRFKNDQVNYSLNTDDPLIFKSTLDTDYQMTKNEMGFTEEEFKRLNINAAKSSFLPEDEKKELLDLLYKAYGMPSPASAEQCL

[2] = system: MT4; experiment: Cytostatic effect against MT4 cells; format: cell-based; details: Homo sapiens, read-out: Inhibitory dose-50 MT4
[3] = system: Moloney murine sarcoma virus (MSV); experiment: MSV-induced C3H cell transformation; format: cell-based; details: for EC50: Moloney murine sarcoma virus, C3H; for MSV-induced C3H cell transformation S.I.: selectivity index, ratio of 50% cytotoxic dose to 50% antivirally effective dose
Description: For transformation of C3H mouse embryo cells by Molo ney murine sarcoma virus (MSV), confluent monolayers of C3H cells in 1 ml wells of Tissue Culture Cluster plates were infected wiht 150 foci-forming units of MSV during 90 min, whereafter medium was replaced by 1 ml fresh culture medium containing different concentrations of test compound. After 6-7 days incubation at 37°C, transformation of the cell cultures was monitored microscopically.
(§1) A series of novel 2,6-diaminopurine and guanine 2′,3′-dideoxynucleoside analogues in which the 2′,3′-dideoxyribose moiety is substituted by a 3′-fluoro group, or replaced by arabinose or 2′-deoxyxylose were evaluated for their effect on the transformation of C3H mouse embryo cells by Moloney murine sarcoma virus (MSV) (Table 1) and the cytopathogenicity induced by HIV in human T4 lymphocyte MT4 cells (Table 1, Fig. 2).

[4] = in vitro; format: cell-based; details: human, mt4 cells
Description: (§2) For the determination of the cytopathic effect of HIV in human T-lymphocyte MT4 cells, MT4 cells, subcultured one day before the start of the experiment, were adjusted at 5 x 10⁵ cells/ml and infected with HIV (HTLV-IIIB) at 100 CCID₅₀/ml. Then, 100 µl of the infected cell suspension was brought into wells of a microtiter tray containing 100 µl of various dilutions of the test compounds. After 5 days incubation at 37°C, the number of viable cells was recorded microscopically in a hematocytometer by trypan blue exclusion.
Its anti-HIV activity is also higher than that found for its corresponding 2,6-diaminopurine derivative FddDAPR.

[5] = system: T-lymphocyte CEM; experiment: Cytostatic effect against CEM cells; format: cell-based; details: Homo sapiens, CCRF-CEM, read-out: Inhibitory dose-50 CEM
Description: (§3) The cultivation of Raji, Molt/4F, CEM, H9, HUT-78 and MT4 cells has been described in Balzarini, J, et al, Biochem. Biophys. Res. Commun. 136:64-71 (1986b) and Pauwels, R. et al, J. Virol. Methods, 16:171-185 (1987).
(§4) The cytostatic effects of the compounds listed in Table 1 were examined against several human B-lymphoblast Raji, T-lymphoblast Molt/4F and T-lymphocyte CEM, H9 and MT4 cell lines (Table 2). […] In no case is the ID₅₀ of the compounds for tumor cell proliferation lower than 60 µM. FddGuo is slightly more cytostatic than FddDAPR (ID₅₀ : 190 to 228 µM, and 233 to >1000 µM, respectively). XylodDAPR and araDAPR are devoid of any anti-cellular activity, even when tested at a concentration as high as 1000 µM.

[6] = system: T-lymphocyte CEM; experiment: Cytostatic effect against CEM cells; format: cell-based; details: Homo sapiens, read-out: Inhibitory dose-50 CEM
[7] = target: T1, beef intestine adenosine deaminase (ADA); experiment: Substrate kinetics for deamination by adenosine deaminase; format: biochemical
Text: All four ddDAPR analogues were examined for their susceptibility to deamination by beef intestine adenosine de aminase (ADA).

[8] = in vitro; format: cell-based; details: mouse, c3h cells
[9] = system: HIV; experiment: Inhibition of HIV antigen expression in infected H9 or HUT-78 cells (indirect immunofluorescence, laser flow cytofluorography); format: cell-based; details: Human immunodeficiency virus 1, HuT78; H9 and HUT-78 cells; data not shown; read-out: concentration achieving 50% inhibition of HIV-induced antigen expression
Text: The inhibitory effects of the test compounds on HIV antigen expression in infected H9 or HUT-78 cells were determined at day 8 and 14, respectively after infection, by indirect immunofluorescence and laser flow cytofluorography using a polyclonal antibody as probe, as previously described (Pauwels, R. et al, (1987)).
To confirm our anti-HIV data obtained in the MT4 cell model, we also evaluated the 3′-fluorinated ddDAPR derivatives in two other human T4 lymphocyte cell lines (H9 and HUT-78) for their inhibitory effect on viral antigen expression (data not shown). In these experiments, FddDAPR achieves 50% inhibition of HIV-induced antigen expression at a concentration range of 0.05 - 1.0 µM. This concentration range is lower than that required to inhibit HIV-induced cytopathogenicity in MT4 cells.

[10] = system: B-lymphoblast Raji; experiment: Cytostatic effect against Raji cells; format: cell-based; details: Homo sapiens, read-out: Inhibitory dose-50 Raji
Description: as §3, §4

[11] = system: T-lymphoblast Molt/4F; experiment: Cytostatic effect against Molt/4F cells; format: cell-based; details: Homo sapiens, read-out: Inhibitory dose-50 Molt/4F
Text: The cultivation of Raji, Molt/4F, CEM, H9, HUT-78 and MT4 cells has been described in Balzarini, J, et al, Biochem. Biophys. Res. Commun.
The cytostatic effects of the compounds listed in Table 1 were examined against several human B-lymphoblast Raji, T-lymphoblast Molt/4F and T-lymphocyte CEM, H9 and MT4 cell lines (Table 2).

[12] = system: MT4; experiment: Cytostatic effect against MT4 cells; format: cell-based; details: Homo sapiens, read-out: Inhibitory dose-50 MT4; remark: listed apart in the source
Description: as §3, §4

[13] = system: H9; experiment: Cytostatic effect against H9 cells; format: cell-based; details: Homo sapiens, read-out: Inhibitory dose-50 H9
Description: as §3, §4

[14] = system: HIV (HTLV-IIIB); experiment: HIV-induced cytopathogenicity in MT4 cells (viable cell count by trypan blue exclusion after 5 days); format: cell-based; details: for EC50: Human immunodeficiency virus 1, IIIB; for HIV-induced cytopathogenicity in MT4 cells S.I.: selectivity index, ratio of 50% cytotoxic dose to 50% antivirally effective dose, 7200 min; for anti-HIV activity: HIV-induced cytopathogenicity in MT4 cells, result in words
Description: as §2, §1

[15] = system: human B-lymphoblast Raji, T-lymphoblast Molt/4F and T-lymphocyte CEM, H9 and MT4 cell lines; experiment: Cytostatic effects, summary over the human B- and T-cell lines; format: cell-based; details: range over the cell lines, read-out: ID₅₀ for tumor cell proliferation
Description: as §3, §4

[16] = C3H cells, 6-7 days at 37°C, read-out: MSV-induced C3H cell transformation ED₅₀
[17] = presence of DCF (10 µM preincubation)
[18] = MT4, 120 h, MT4 cells, 5 days at 37°C, read-out: HIV-induced cytopathogenicity in MT4 cells ED₅₀

Compound | EC50 [3, 16] | MSV-induced C3H cell transformation S.I. [3] | CC50 at 120 h [4] | IC50 [5] | Vmax [7] | CC50 [8] | IC50 [10] | IC50 ([11]; Molt/4F) | IC50 [12] | IC50 [13] | EC50 [14, 18] | HIV-induced cytopathogenicity in MT4 cells S.I. [14] | also measured
Nc1ncnc2c1ncn2[C@@H]1O[C@H](CO)[C@@H](O)[C@H]1O [Ado, adenosine] | – | – | – | – | – | – | – | – | – | – | – | – | Vmax [1]: 287^a µmole/mg proten/min
Nc1nc(N)c2ncn([C@H]3C[C@H](F)[C@@H](CO)O3)c2n1 [FddDAPR, 3′-fluoro-2,6-diaminopurine 2′,3′-dideoxyriboside] | 28 µM | > 15 | 360 µM | 233 µM | 31 µmole/mg proten/min | > 400 µM | 753 µM | 425 µM | 337 µM | 377 µM | 4.5 µM | 80 | IC50 ([2]; MT4, presence of DCF (10 µM preincubation)): 520 µM; IC50 ([2]; MT4, without DCF (Table 4)): 469 µM; EC50 ([3]; presence of 10 µM DCF (2′-deoxycoformycin), read-out: Effective dose-50 MSV-induced C3H cell transformation): 87 µM; EC50 ([3]; without DCF (Table 3), read-out: Effective dose-50 MSV-induced C3H cell transformation): 31 µM; IC50 [6, 17]: 739 µM; IC50 ([6]; without DCF (Table 4)): 241 µM; EC50 [9]: 0.05 to 1 µM; IC50 [11, 17]: 865 µM; IC50 ([11]; without DCF (Table 4)): 353 µM; EC50 ([14]; MT4, presence of 10 µM DCF (2′-deoxycoformycin), read-out: Effective dose-50 HIV-induced cytopathogenicity in MT4 cells): 39 µM; EC50 ([14]; MT4, without DCF (Table 3), read-out: Effective dose-50 HIV-induced cytopathogenicity in MT4 cells): 4.5 µM
Nc1nc2c(ncn2[C@H]2C[C@H](F)[C@@H](CO)O2)c(=O)[nH]1 [FddGuo, 3′-fluoro-2′,3′-dideoxyguanosine] | 12 µM | > 23 | 231 µM | 119 µM | – | > 400 µM | 107 µM | 228 µM | 197 µM | 194 µM | 2.4 µM | 96 | IC50 [15]: 190 to 228 µM
Nc1nc(N)c2ncn([C@H]3C[C@@H](O)[C@@H](CO)O3)c2n1 [XylodDAPR] | > 400 µM | – | > 625 µM | > 1000 µM | 3.7 µmole/mg proten/min | > 400 µM | > 1000 µM | > 1000 µM | > 1000 µM | > 1000 µM | > 125 µM | – | anti-HIV activity [14]: devoid of any anti-HIV activity
Nc1nc(N)c2ncn([C@@H]3O[C@H](CO)[C@@H](O)[C@@H]3O)c2n1 [araDAPR, 9-β-D-arabinofuranosyl 2,6-diaminopurine] | > 400 µM | – | > 625 µM | > 1000 µM | 5.9 µmole/mg proten/min | > 400 µM | > 1000 µM | > 1000 µM | > 1000 µM | > 1000 µM | > 125 µM | – | Km [7]: 83 µM; anti-HIV activity [14]: devoid of any anti-HIV activity
Nc1ncnc2c1ncn2[C@H]1CC[C@@H](CO)O1 [ddAdo, 2′,3′-dideoxyadenosine] | – | – | – | – | – | – | – | – | – | – | – | – | Vmax [1]: 262^a µmole/mg proten/min
Nc1nc2c(ncn2[C@H]2CC[C@@H](CO)O2)c(=O)[nH]1 [ddGuo, 2′,3′-Dideoxyguanosine] | 72 µM | > 5.5 | 486 µM | 142 µM | – | > 400 µM | 903 µM | 380 µM | 942 µM | 531 µM | 7.6 µM | 64 | –
